Test results reported in ChEMBL document CHEMBL1139643, “Cell differentiation inducers derived from thalidomide” (2005).

How the values were obtained:
Type in all cases: functional
HL-60 [1] = test: Percent cell proliferation of human leukemia cell line HL-60 at 1*E-5 M
HL-60 [2] = test: NBT positivity against human leukemia cell line HL-60 at 1*E-5 M
HL-60 [3] = test: NBT positivity against human leukemia cell line HL-60 at 2*E-9 M
HL-60 [4] = test: Percent cell proliferation of human leukemia cell line HL-60 at 2*E-9 M
HL-60 [5] = test: Percent cell proliferation of human leukemia cell line HL-60 at 3*E-6 M
HL-60 [6] = test: NBT positivity against human leukemia cell line HL-60 at 3*E-6 M
HL-60 [7] = test: Percent cell proliferation of human leukemia cell line HL-60 at 1*E-6 M
HL-60 [8] = test: Percent cell proliferation of human leukemia cell line HL-60 at 5*E-6 M
HL-60 [9] = test: NBT positivity against human leukemia cell line HL-60 at 1*E-6 M
HL-60 [10] = test: NBT positivity against human leukemia cell line HL-60 at 5*E-6 M
HL-60 [11] = test: Percent cell proliferation of human leukemia cell line HL-60 at 1*E-8 M
HL-60 [12] = test: NBT positivity against human leukemia cell line HL-60 at 1*E-8 M

| Structure (SMILES) | Cell proliferation (HL-60 [1]) [%] | NBT positivity (HL-60 [2]) [%] | also measured |
| --- | --- | --- | --- |
| O=C1CCC(N2C(=O)c3ccccc3C2=O)C(=O)N1 (stereo not drawn) [THALIDOMIDE] | 101 | 1 | – |
| CC1=C(/C=C/C(C)=C/C=C/C(C)=C/C(=O)O)C(C)(C)CCC1 [TRETINOIN] | – | – | NBT positivity (HL-60 [3]): 52%; Cell proliferation (HL-60 [4]): 45% |
| O=C1CCC(N2C(=O)c3ccccc3C2=O)C(=O)N1O (stereo not drawn) | 100 | 1 | – |
| CC1(N2C(=O)c3ccc(N)cc3C2=O)CCC(=O)NC1=O (stereo not drawn) | 103 | 1 | – |
| CC(C)c1cccc(C(C)C)c1N1C(=O)c2cccc(N)c2C1=O | 25 | 16 | Cell proliferation (HL-60 [5]): 73%; NBT positivity (HL-60 [6]): 2% |
| CC(C)c1cccc(C(C)C)c1N1C(=O)c2ccc(O)cc2C1=O | – | – | Cell proliferation (HL-60 [7]): 94%; Cell proliferation (HL-60 [5]): 43%; Cell proliferation (HL-60 [8]): 10%; NBT positivity (HL-60 [9]): 3%; NBT positivity (HL-60 [6]): 8%; NBT positivity (HL-60 [10]): 55% |
| CC1(N2C(=O)c3cccc(N)c3C2=O)CCC(=O)NC1=O (stereo not drawn) | 92 | 2 | – |
| CC(C)c1cccc(C(C)C)c1N1C(=O)c2ccccc2C1=O | 24 | 9 | – |
| CC(C)c1cccc(C(C)C)c1N1C(=O)c2cccc(O)c2C1=O | 76 | 3 | – |
| C=C1/C(=C\C=C2/CCC[C@]3(C)[C@@H]([C@H](C)CCCC(C)(C)O)CC[C@@H]23)C[C@@H](O)C[C@@H]1O [CALCITRIOL] | – | – | Cell proliferation (HL-60 [11]): 55%; NBT positivity (HL-60 [12]): 39% |
| CC(C)c1cccc(C(C)C)c1N1C(=O)c2ccc(N)cc2C1=O | 53 | 5 | – |
